Consider 6 molecules from ChEMBL document CHEMBL1201862, “PubChem BioAssay data set” (2004).

SMILES strings stand for the structures. Counter-ions that a name gives are not always drawn. The source made the active and inactive calls. Some results are limits rather than exact numbers.

Assay [1] has as its target T1, Low molecular weight phosphotyrosine protein phosphatase (Homo sapiens, UniProt P24666).
T1 sequence (P24666 whole entry): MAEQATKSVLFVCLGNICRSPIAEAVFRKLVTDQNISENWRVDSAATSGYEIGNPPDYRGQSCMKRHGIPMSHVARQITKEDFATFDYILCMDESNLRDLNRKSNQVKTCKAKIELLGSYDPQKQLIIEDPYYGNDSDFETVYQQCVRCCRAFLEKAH
In words: LMPTP phosphatase inhibitors, dose response, biochemical, OMFP substrate, fluorescence intensity, set 2 (AID 743307). The class given is functional.

In assay [2] the target is T1, Low molecular weight phosphotyrosine protein phosphatase. Nature of the assay: LMPTP phosphatase inhibitors, colorimetric pNPP readout, dose response, orthogonal assay, biochemical, absorbance, pNPP substrate, LMPTP-A isoform, set 2 (AID 743308). The class given is functional.
The nature of assay [3]: P. falciparum late gametocyte killing, dose response, luminescence (AID 1117278).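 Also: gametocytes exposed to compound for 24 hours.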 The assay is classed as functional, cell-based.
Assay [4] in a line: Jurkat T cell cytotoxicity, dose response, cytotoxicity control for P. falciparum gametocyte viability project, luminescence (AID 1117277).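 Also: potency reflects loss of cellular ATP meaning fewer viable cells.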 The assay is classed as functional, cell-based.
Assay [5] has as its target G-protein coupled receptor 183 (Homo sapiens, UniProt P32249). Nature of the assay: SAR confirmation of small molecule antagonists of the EBI2 receptor via a luminescent beta-arrestin assa. The class given is functional.
A further assay deals with T2, Aminopeptidase N (Plasmodium falciparum FcB1/Columbia, UniProt O96935).
T2 sequence (O96935 whole entry): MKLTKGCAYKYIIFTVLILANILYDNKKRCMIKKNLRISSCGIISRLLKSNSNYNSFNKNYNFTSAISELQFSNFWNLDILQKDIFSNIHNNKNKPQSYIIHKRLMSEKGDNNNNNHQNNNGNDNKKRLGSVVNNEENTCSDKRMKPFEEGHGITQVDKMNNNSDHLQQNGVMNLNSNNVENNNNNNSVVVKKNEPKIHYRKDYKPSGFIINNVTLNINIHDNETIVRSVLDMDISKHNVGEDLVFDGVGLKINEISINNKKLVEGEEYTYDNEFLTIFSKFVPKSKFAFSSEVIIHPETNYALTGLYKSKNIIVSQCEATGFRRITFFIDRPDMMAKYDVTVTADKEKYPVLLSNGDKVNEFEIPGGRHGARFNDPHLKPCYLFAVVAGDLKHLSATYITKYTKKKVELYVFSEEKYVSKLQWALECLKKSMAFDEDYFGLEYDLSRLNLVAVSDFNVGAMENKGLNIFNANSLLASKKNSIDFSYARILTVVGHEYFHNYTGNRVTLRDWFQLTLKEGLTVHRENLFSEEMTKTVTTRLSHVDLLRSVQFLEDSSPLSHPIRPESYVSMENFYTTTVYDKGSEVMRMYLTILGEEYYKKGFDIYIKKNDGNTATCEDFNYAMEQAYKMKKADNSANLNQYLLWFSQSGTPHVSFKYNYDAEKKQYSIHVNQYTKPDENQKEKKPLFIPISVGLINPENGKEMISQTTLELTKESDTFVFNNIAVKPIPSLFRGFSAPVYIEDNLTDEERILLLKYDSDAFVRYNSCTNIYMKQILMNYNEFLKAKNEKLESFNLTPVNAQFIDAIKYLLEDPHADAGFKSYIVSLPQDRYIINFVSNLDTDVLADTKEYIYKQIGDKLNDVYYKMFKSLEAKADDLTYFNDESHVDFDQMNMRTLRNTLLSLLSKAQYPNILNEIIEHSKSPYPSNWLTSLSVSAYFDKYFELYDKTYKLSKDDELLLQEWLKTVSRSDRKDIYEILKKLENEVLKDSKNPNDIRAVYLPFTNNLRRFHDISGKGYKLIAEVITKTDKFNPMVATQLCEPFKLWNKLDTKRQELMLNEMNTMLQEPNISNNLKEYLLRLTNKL
In words: P. falciparum M1AAP inhibitors, biochemical, fluorogenic H-Leu-NHMec substrate, 1536-well (AID 1445). Set-up: species or system Plasmodium falciparum 3D7, 3D7.

For assay [6], the target named is RNA-editing ligase 1, mitochondrial (Trypanosoma brucei brucei, UniProt P86926). In words: TbREL1 ligase inhibitors, dose response, biochemical, fluorescence, Trypanosoma brucei (AID 1117295). The assay is classed as functional.
Assay [7] deals with T3, RNA-binding protein pos-1 (Caenorhabditis elegans, UniProt G5EF15).
T3 sequence (G5EF15 whole entry): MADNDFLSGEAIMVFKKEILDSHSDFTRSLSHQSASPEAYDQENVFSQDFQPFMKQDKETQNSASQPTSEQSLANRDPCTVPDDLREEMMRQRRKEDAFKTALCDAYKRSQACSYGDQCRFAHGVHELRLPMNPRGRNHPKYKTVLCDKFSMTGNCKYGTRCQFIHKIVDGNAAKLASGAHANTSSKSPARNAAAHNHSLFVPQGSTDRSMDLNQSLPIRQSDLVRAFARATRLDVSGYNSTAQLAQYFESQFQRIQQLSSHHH
In words: inhibitors of POS-1/mex-3 RNA binding, dose response, biochemical, fluorescence polarization (AID 1964).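 Also: purified POS-1 fused to maltose binding protein made in E. coli; potency of compounds blocking POS-1 binding to fluorescent RNA.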 A general note: Polarisation of emitted light reports the rotation of a fluorescent probe.

A further assay addresses Albumin (Bos taurus, UniProt P02769). In words: Counterscreen for inhibitors of T-cell receptor (TCR)-CD3 interaction: Fluorescence-based biochemical high throughput dose response assay to identify inhibitors of T-cell receptor (TCR)-CD3 interaction using a TAMRA-labeled BSA probe. The class given is functional. For orientation: A counterscreen serves to expose hits that act by an unwanted route or on another target.

The target in assay [8] is T4, Zinc finger protein mex-5 (Caenorhabditis elegans, UniProt Q9XUB2).
T4 sequence (Q9XUB2 whole entry): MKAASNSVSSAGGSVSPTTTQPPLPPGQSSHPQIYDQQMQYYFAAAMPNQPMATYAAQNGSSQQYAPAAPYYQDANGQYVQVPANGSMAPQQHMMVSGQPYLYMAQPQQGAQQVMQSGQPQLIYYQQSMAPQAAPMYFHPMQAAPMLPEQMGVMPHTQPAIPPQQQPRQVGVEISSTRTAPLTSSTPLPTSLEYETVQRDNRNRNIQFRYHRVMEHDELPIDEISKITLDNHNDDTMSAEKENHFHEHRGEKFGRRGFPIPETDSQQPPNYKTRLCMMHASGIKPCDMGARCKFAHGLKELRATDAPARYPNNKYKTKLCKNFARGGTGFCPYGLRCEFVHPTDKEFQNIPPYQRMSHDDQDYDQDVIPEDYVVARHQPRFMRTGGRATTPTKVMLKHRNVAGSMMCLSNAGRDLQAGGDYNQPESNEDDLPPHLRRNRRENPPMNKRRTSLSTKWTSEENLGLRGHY
In words: MEX-5/TCR-2 RNA interaction inhibitors, dose response, biochemical, C. elegans, fluorescence polarization (AID 1960).

A short description of assay [9]: HCT116 cell viability decrease, GSK3B pretreatment – CellTiter-Glo, IC50, dose response (AID 1117339). The assay is classed as functional. Particulars: HCT-116.
The nature of assay [10]: HeLa 2N DNA content increase, dose response, cell-based, IC50 (AID 1117349). The assay is classed as functional.
Assay [11] in a line: HeLa 4N DNA content increase, dose response, cell-based, IC50 (AID 1117351). The assay is classed as functional.
A short description of another assay: cells. The assay is classed as functional, cell-based. The settings on record: INS-1E.
Assay [12] in a line: SNU-C1 cell viability reduction, dose response, CellTiter-Glo luminescence (AID 1117323). The class given is functional, cell-based.
Assay [13] is described as follows: RKO cell viability reduction, dose response, CellTiter-Glo luminescence (AID 1117322). The class given is functional. Background: ATP-based viability assays read luminescence as a measure of living cells.
The nature of assay [14]: Concentration-dependent survival of SW480 colon cancer line, luminescence detection with CellTiter-Glo, half-maximal inhibitory concentration (AID 1117338). The class given is functional.
Assay [15] in a line: Dose-response inhibition of insulin secretion in a rat insulinoma line at 5 mM glucose (AID 1117331). The assay is classed as functional, cell-based. Particulars: INS-1E.
Assay [16] in a line: Vero cell cytotoxicity, dose response, cytotoxicity control for Vif-APOBEC3G degradation inhibitor project, Vero cells (AID 1117358). The class given is functional. The settings on record: Human immunodeficiency virus 1, Vero.
Assay [17] concerns HEK293. In words: cells. The class given is functional, cell-based. Particulars: Homo sapiens.
Assay [18] relates to HEK293. Nature of the assay: NOD1 signaling inhibitors, primary screen, cell-based, luminescence, uHTS (AID 1578). The class given is functional. The settings on record: Homo sapiens.
In assay [19] the test system is HEK293. In words: NOD2 signaling inhibitors in MDP-stimulated cells, cell-based, uHTS, luminescence (AID 2001). The assay is classed as functional. Particulars: Homo sapiens.
Assay [20] relates to HEK293. In words: cells. The assay is classed as functional, cell-based. The settings on record: Homo sapiens. The source holds these as a separate data set.

Sequence of G-protein coupled receptor 183 (P32249 whole entry): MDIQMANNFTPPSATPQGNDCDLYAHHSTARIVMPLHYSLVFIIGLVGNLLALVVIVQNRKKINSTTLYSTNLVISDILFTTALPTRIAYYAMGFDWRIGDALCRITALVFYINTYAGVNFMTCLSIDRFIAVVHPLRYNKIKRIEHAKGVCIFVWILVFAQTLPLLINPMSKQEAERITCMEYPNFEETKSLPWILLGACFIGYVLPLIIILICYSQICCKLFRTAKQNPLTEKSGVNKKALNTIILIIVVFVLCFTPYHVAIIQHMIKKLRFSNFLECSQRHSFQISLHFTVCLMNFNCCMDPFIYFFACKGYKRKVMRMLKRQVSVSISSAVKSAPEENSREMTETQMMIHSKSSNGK
Sequence of Albumin (P02769 whole entry): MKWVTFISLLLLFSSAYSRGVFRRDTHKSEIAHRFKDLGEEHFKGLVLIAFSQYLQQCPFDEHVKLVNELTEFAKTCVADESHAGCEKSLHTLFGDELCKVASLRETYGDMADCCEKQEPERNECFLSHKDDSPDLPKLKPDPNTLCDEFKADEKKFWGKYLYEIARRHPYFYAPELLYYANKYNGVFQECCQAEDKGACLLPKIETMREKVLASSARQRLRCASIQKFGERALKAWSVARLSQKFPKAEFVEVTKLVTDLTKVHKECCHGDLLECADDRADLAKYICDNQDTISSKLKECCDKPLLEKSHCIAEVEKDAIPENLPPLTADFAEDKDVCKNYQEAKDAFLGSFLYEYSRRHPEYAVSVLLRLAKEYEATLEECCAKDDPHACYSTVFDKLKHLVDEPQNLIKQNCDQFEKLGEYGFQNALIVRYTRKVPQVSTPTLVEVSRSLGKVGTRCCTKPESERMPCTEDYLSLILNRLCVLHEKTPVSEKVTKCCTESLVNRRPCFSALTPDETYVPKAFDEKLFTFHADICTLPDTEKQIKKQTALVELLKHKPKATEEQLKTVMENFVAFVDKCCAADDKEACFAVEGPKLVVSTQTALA
Sequence of RNA-editing ligase 1, mitochondrial (P86926 whole entry): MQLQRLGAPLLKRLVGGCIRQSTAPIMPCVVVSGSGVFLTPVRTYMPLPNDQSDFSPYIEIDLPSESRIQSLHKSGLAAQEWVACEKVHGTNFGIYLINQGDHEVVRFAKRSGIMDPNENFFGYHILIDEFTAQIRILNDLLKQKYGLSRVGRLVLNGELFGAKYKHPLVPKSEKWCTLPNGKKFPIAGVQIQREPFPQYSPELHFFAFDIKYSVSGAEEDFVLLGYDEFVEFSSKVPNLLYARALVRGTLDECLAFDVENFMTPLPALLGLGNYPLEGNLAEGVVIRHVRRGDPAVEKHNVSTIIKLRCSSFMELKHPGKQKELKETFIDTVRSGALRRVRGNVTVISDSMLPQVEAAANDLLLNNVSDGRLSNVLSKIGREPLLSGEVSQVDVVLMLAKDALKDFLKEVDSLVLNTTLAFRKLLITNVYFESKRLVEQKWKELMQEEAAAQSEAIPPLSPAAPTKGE

As usually defined, the IC50 is the concentration that gives 50% inhibition. With `CCN(CC)c1nc(-c2ccccc2)nc2ccccc12`, the IC50 was 53.1 µM (inactive) in assay [1] and > 80 µM (inactive) in assay [2].
For `CC(C)Cc1nnc(NC(=O)CSc2nc(O)c(-c3ccccc3)c(O)n2)s1`, the results for the IC50 in [3] and in assay [4] were > 109 µM (inactive) and > 83.3 µM (inactive), respectively.
Regarding `O=C(/C=C/c1ccc(F)cc1)N1CCN(S(=O)(=O)CCc2ccccc2)CC1`, the IC50 in assay [5] is 0.00327 µM (active).
Usually EC50 stands for the concentration needed to bring the measured effect to its halfway point. Take `Cc1n[nH]c(S/C(=C/c2ccc(-c3ccc(C(=O)O)cc3)o2)C(=O)O)n1`: the IC50 on Aminopeptidase N was 18.5 µM (active); in assay [6], 77.9 µM (inactive); on Albumin it was > 94.2 µM (inactive). The EC50 is 4.1 µM (active) in assay [7] and 1.45 µM (active) in [8].
Turning to `CCN(CC)CCCC(C)Nc1c2ccc(Cl)cc2nc2ccc(OC)cc12` (stereo not drawn) [QUINACRINE HYDROCHLORIDE], the IC50 is 4.48 µM (active) in assay [9]; 2.16 µM (active) in [10]; > 10 µM (inactive) in assay [11]; > 33.3 µM (inactive) in “cells”; 3.84 µM (active) in assay [12]; 3.42 µM (active) in [13]. Also, the IC50 in assay [14] is 3.6 µM (active); in assay [15] it was 4.07 µM (active).
Usually CC50 stands for the concentration at which the toxic effect on the cells reaches its halfway point. In the case of `COc1ccc(NC(=O)c2cccc(S(=O)(=O)Nc3ccc(Br)cc3)c2)cn1`, the CC50 in assay [16] was 22.8 µM (active). Moreover, the values for the IC50 in the assay on HEK293 [17], in the assay on HEK293 [19] and in the assay on HEK293 [20] were > 20 µM (inactive), 8.65 µM (active) and 17.3 µM (active), respectively. For the same molecule, the EC50 in the assay on HEK293 [18] was 11.2 µM (active).
